Assay results published in ChEMBL document CHEMBL5325400 (Eur J Med Chem, 2023).
Calls of active or inactive are those of the source. The calls are words filed in the database; no cut-off is given here.

How the values were obtained:
SK-OV-3 = experiment: Antiproliferative activity against human SK-OV-3 cells assessed as inhibition of cell growth measured after 48 hrs by MTT assay; assay type: functional, cell-based; settings: SK-OV-3, 48 h
HeLa = experiment: Antiproliferative activity against human HeLa cells assessed as inhibition of cell growth measured after 48 hrs by MTT assay; assay type: functional, cell-based
A549 [1] = experiment: Antiproliferative activity against human A549 cells assessed as inhibition of cell growth measured after 48 hrs by MTT assay; assay type: functional, cell-based; settings: A549, 48 h
A549 [2] = experiment: Antiproliferative activity against human A549 cells expressing lentivirus RNAi VTI-96660 assessed as inhibition of cell growth measured after 48 hrs by MTT assay; assay type: functional, cell-based
Tubulin (Homo sapiens) = Tubulin (Homo sapiens) (UniProt P68371+Q9H4B7+P0DPH7+P68366+Q13509+Q71U36+P04350+Q3ZCM7+P07437+P68363+Q9BQE3+Q6PEY2+Q13885+Q9BVA1+Q9BUF5); experiment: Inhibition of tubulin polymerization in human A549 cells assessed as microtubule network polymerization at 100 nM measured after 18 hrs by Alexa Fluor 488 and DAPI staining based confocal microscopic analysis; assay type: cell-based
Tubulin = experiment: Binding affinity to tubulin (unknown origin) assessed as dissociation constant by SPR analysis; assay type: protein-complex assay, Homo sapiens
A549 [3] = experiment: Induction of cell cycle arrest in human A549 cells assessed as accumulation at G2 phase at 10 nM incubated for 24 hrs by PI staining based flow cytometry (Rvb= 12.49%); assay type: functional
A549 [4] = experiment: Induction of cell cycle arrest in human A549 cells assessed as accumulation at G2 phase at 40 nM incubated for 24 hrs by PI staining based flow cytometry (Rvb= 12.49%); assay type: functional
A549 [5] = experiment: Induction of cell cycle arrest in human A549 cells assessed as accumulation at G1 phase at 20 nM incubated for 24 hrs by PI staining based flow cytometry (Rvb= 65.68%); assay type: functional
A549 [6] = experiment: Induction of cell cycle arrest in human A549 cells assessed as accumulation at S phase at 10 nM incubated for 24 hrs by PI staining based flow cytometry (Rvb= 20.94%); assay type: functional
A549 [7] = experiment: Induction of apoptosis in human A549 cells assessed as early apoptotic cells at 20 nM incubated for 24 hrs by annexin V-FITC/propidium iodide staining based flow cytometry analysis (reference value: 0.84%); assay type: functional
A549 [8] = experiment: Induction of apoptosis in human A549 cells assessed as late apoptotic cells at 10 nM incubated for 24 hrs by annexin V-FITC/propidium iodide staining based flow cytometry analysis (reference value: 0.37%); assay type: functional
A549 [9] = experiment: Induction of apoptosis in human A549 cells assessed as necrotic cells at 20 nM incubated for 24 hrs by annexin V-FITC/propidium iodide staining based flow cytometry analysis (reference value: 2.36%); assay type: functional
A549 [10] = experiment: Induction of apoptosis in human A549 cells assessed as necrotic cells at 40 nM incubated for 24 hrs by annexin V-FITC/propidium iodide staining based flow cytometry analysis (reference value: 2.36%); assay type: functional
A549 [11] = experiment: Antimigratory activity against human A549 cells assessed as inhibition of cell migration at 10 nM and incubated for 12 hrs by scratch wound healing assay (reference value: 29.5 +/- 1.34%); assay type: functional; set-up: scale not given: the % may be the effect or the level left
B16-F10 [12] = experiment: Antimigratory activity against mouse B16-F10 cells assessed as inhibition of cell migration at 10 nM and incubated for 12 hrs by scratch wound healing assay (reference value: 81.9 +/- 0.64%); assay type: functional; set-up: scale not given: the % may be the effect or the level left
A549 [13] = experiment: Inhibition of cell migration in human A549 cells assessed as total number of cells migrated at 20 nM incubated for 12 hrs by crystal violet staining based transwell assay (reference value: 724 +/- 16); assay type: functional
B16-F10 [14] = experiment: Inhibition of cell migration in mouse B16-F10 cells assessed as total number of cells migrated at 20 nM incubated for 12 hrs by crystal violet staining based transwell assay (reference value: 692 +/- 11); assay type: functional
[15] = AUC(0 to infinity) in Sprague-Dawley rat at 1 mg/kg, iv by LC-MS analysis; assay type: ADME, organism-based; set-up: dose 1 mg/kg, route iv; settings: in vivo
[16] = Volume of distribution in Sprague-Dawley rat at 1 mg/kg, iv by LC-MS analysis; assay type: ADME, organism-based; settings: in vivo
[17] = Toxicity in BALB/c mouse assessed as drug tolerability at 10 mg/kg, ip; assay type: organism-based; settings: in vivo
[18] = Toxicity in BALB/c mouse assessed as adverse effect at 10 mg/kg, ip; assay type: organism-based; settings: in vivo
A549 [19] = experiment: Antitumor activity against human A549 cells xenografted in BALB/c mouse assessed as tumor growth inhibition at 10 mg/kg, ip administered every other day for 25 days; assay type: functional; settings: A549, 600 h, time 25 day, read-out: TGI
A549 [20] = experiment: Antitumor activity against human A549 cells xenografted in BALB/c mouse assessed as tumor volume at 10 mg/kg, ip administered every other day for 25 days; assay type: functional; settings: time 25 day
A549 [21] = experiment: Antitumor activity against human A549 cells xenografted in BALB/c mouse assessed as downregulation of Bcl-2 expression in tumor at 10 mg/kg, ip administered every other day for 25 days by Western blotting analysis; assay type: functional, organism-based; settings: time 25.0 day
A549 [22] = experiment: Antitumor activity against human A549 cells xenografted in BALB/c mouse assessed as downregulation of Bcl-2 expression in tumor at 5 mg/kg, ip administered every other day for 25 days by Western blotting analysis; assay type: functional, organism-based; settings: time 25.0 day
[23] = Toxicity in BALB/c nude mouse xenografted with human A549 cells assessed as pathological changes in heart at 5 to 10 mg/kg, ip administered every other day for 25 days by hematoxylin and eosin staining based microscopic analysis; assay type: organism-based; settings: in vivo, 600 h, dose 5-10 mg/kg, time 25 day
[24] = Toxicity in BALB/c nude mouse xenografted with human A549 cells assessed as pathological changes in liver at 5 to 10 mg/kg, ip administered every other day for 25 days by hematoxylin and eosin staining based microscopic analysis; assay type: organism-based; settings: in vivo, 600 h, dose 5-10 mg/kg, time 25 day
[25] = Toxicity in BALB/c nude mouse xenografted with human A549 cells assessed as pathological changes in lung at 5 to 10 mg/kg, ip administered every other day for 25 days by hematoxylin and eosin staining based microscopic analysis; assay type: organism-based; settings: in vivo, 600 h, dose 5-10 mg/kg, time 25 day
A549 [26] = experiment: Antitumor activity against human A549 cells xenografted in BALB/c mouse assessed as reduction in AKT phosphorylation at S473 residue in tumor at 5 to 10 mg/kg, ip administered every other day for 25 days by Western blotting analysis; assay type: functional, organism-based; settings: dose 5-10 mg/kg, time 25.0 day
A2780 = experiment: cells; settings: Homo sapiens, A2780, 48 h
Description: Antiproliferative activity against human A2780 cells assessed as inhibition of cell growth incubated for 48 hrs by MTT assay

A549 [27] = experiment: Residual cell migration in human A549 cells at 5 nM incubated for 12 hrs by crystal violet staining based transwell assay; settings: A549, 12 h
A549 [28] = experiment: Residual cell migration in human A549 cells at 10 nM incubated for 12 hrs by crystal violet staining based transwell assay; settings: A549, 12 h
A549 [29] = experiment: Residual cell migration in human A549 cells at 20 nM incubated for 12 hrs by crystal violet staining based transwell assay; settings: A549, 12 h

IC50 (SK-OV-3): 1.5 nM
IC50 (HeLa): 3.6 nM
IC50 (A549 [1]): 1.1 nM
inhibition (Tubulin (Homo sapiens)): Active
Kd (Tubulin): 43200 nM
AUC [15]: 239.43 ng·h/mL
Vd [16]: 1.3 L/kg
IC50 (A2780): 16 nM
SMILES: COc1cccc(Nc2cc(Nc3cccc(NC(=O)C4CC4)c3)ncn2)c1
Activity (A549 [2]): Active
Activity (A549 [3]): 23.37%
Activity (A549 [4]): 53.15%
Activity (A549 [5]): 48%
Activity (A549 [6]): 15.3%
Activity (A549 [7]): 1.69%
Activity (A549 [8]): 9.78%
Activity (A549 [9]): 6%
Activity (A549 [10]): 5.78%
Activity (A549 [11]): 15.8%
Activity (B16-F10 [12]): 49.9%
Activity (A549 [13]): 397
Activity (B16-F10 [14]): 319
Activity [17]: Non-Toxic
Activity [18]: Non-Toxic
inhibition in vivo at 10 mg/kg (A549 [19]): 65.4%
Activity (A549 [20]): 63.77%
Activity (A549 [21]): Active
Activity (A549 [22]): Active
Activity [23]: Non-Toxic
Activity [24]: Non-Toxic
Activity [25]: Non-Toxic
Activity (A549 [26]): inactive
level, % of control at 0.005 µM (A549 [27]): 91.5%
level, % of control at 0.01 µM (A549 [28]): 70.6%
level, % of control at 0.02 µM (A549 [29]): 56.3%
